Laboratory results reported in patent publication US4822800A (Ortho Pharmaceutical Corporation, priority 1986, dated 1989).
“Also recorded” adds a separate entry of the source. Where a name gives a salt, the structure may show the parent alone. Read-outs that look alike come from different tables or passages of the source.

Key:
adult mongrel dogs [1] = assay: renal vasodilating activity in anesthetized dogs; type: in vivo, dog (adult mongrel); conditions: for change in vivo at 13.9 mg/kg / change in vivo at up to 13.9 mg/kg / change in vivo at 0.14 mg/kg / change in vivo at 1.2 mg/kg / change in vivo at 0.2 mg/kg: Canis lupus familiaris, renal vasodilator, relative to controls; for change in vivo at 13.9 mg/kg / change in vivo at up to 13.9 mg/kg: dose 13.9 mg/kg intravenous; for renal vasodilating activity (in words): summary of Table 4; for change in vivo at 0.14 mg/kg: dose 0.14 mg/kg intravenous; for change in vivo at 1.2 mg/kg: dose 1.2 mg/kg intravenous; for change in vivo at 0.2 mg/kg: dose 0.2 mg/kg intravenous
Procedure: Goldberg et al, J. Pharmacol. Exp. Ther., 163, 188 (1968), performed an investigation of the structural requirements for dopamine-like renal vasodilation of phenethylamines and apomorphine. The following procedure is a variation of the assay described in that report.
Adult mongrel dogs were anesthetized and surgically prepared for electromagnetic measurement of renal artery blood flow. A carotid artery was cannulated for measuring arterial blood pressure, and drugs were administered intravenously. Heart rate was monitored with a cardiotachometer. Renal vascular resistance was calculated as the ratio of mean arterial blood pressure/renal artery blood flow. Dopamine was infused intravenously at 3 μg/kg/min for ten minutes (at an infusion rate of about 1 ml/min) to determine responsiveness of each dog to renal dopamine receptor stimulation. Cumulative dose-response data were obtained by infusing a compound of this invention at progressively increasing (usually three-fold) infusion rates, each dose being infused for five minutes. The maximum % increase from pre-drug control in renal artery blood flow (or a decrease in renal vascular resistance) was determined for each infusion dose.
RBF values are percent change in renal blood flow. RVR values are percent change in renal vascular resistance. MABP and HR are percent changes in mean arterial blood pressure and heart rate, respectively, relative to controls.

[2] = molecular target: T1, Phosphodiesterase fraction III (Canis lupus familiaris, UniProt A0A8I3NYE0); assay: inhibition of phosphodiesterase fraction III activity; type: biochemical, canine (heart); conditions: for IC50: cyclic AMP 0.10-1.0 uM, pH 7.4, canine heart enzyme; for phosphodiesterase fraction III inhibition (in words): summary of Table 5
T1 construct: isolated as an isozyme from the crude canine heart homogenate; from tissue; host or cells: canine heart (crude homogenate, ion exchange chromatography, third and last PDE peak)
T1 sequence (A0A8I3NYE0 1-1135): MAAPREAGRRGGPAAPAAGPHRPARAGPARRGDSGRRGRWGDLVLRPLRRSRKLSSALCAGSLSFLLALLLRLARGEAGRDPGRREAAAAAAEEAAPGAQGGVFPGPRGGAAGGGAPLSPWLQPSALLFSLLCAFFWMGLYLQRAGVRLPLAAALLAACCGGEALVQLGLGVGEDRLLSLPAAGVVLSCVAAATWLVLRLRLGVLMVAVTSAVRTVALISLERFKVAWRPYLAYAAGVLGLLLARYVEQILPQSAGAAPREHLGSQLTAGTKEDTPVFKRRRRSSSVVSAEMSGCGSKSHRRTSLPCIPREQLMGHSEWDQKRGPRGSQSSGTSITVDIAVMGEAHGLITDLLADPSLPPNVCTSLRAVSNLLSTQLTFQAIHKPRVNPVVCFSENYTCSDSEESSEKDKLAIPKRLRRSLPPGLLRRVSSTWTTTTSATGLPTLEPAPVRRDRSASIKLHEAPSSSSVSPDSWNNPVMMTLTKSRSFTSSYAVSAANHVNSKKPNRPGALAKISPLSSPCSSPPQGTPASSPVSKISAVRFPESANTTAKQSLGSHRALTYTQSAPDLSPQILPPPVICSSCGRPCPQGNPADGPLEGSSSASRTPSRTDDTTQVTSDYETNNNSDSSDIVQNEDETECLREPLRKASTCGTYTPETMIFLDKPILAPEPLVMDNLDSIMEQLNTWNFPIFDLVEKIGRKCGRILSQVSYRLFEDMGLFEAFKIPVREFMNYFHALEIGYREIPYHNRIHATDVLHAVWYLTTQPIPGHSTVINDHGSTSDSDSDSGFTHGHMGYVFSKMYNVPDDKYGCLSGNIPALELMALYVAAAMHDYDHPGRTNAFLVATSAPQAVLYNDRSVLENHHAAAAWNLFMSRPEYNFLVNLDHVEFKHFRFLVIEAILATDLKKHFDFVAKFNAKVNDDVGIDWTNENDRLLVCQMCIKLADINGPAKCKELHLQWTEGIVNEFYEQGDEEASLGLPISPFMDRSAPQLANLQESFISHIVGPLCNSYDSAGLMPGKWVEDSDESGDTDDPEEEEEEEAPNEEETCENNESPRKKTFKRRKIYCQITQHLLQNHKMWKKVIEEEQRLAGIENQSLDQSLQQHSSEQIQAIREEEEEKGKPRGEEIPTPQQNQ

adult mongrel dogs [3] = assay: acute in vivo cardiotonic activity in anesthetized dogs; parameters: species or system dog (adult mongrel); conditions: for change in vivo at 0.375 mg/kg / change in vivo at 0.875 mg/kg / change in vivo at 8.75 mg/kg / change in vivo at 3.75 mg/kg / change in vivo at 0.1 mg/kg: Canis lupus familiaris, cardiotonic, relative to controls; for change in vivo at 0.375 mg/kg: dose 0.375 mg/kg intravenous; for cardiotonic activity (in words): summary of Table 4; for change in vivo at 0.875 mg/kg: dose 0.875 mg/kg intravenous; for change in vivo at 8.75 mg/kg: dose 8.75 mg/kg intravenous; for change in vivo at 3.75 mg/kg: dose 3.75 mg/kg intravenous; for change in vivo at 0.1 mg/kg: dose 0.100 mg/kg intravenous
Procedure: The acute in vivo cardiotonic activity of compounds prepared according to the present invention was determined according to a modification of the procedure described by Alousi et al., Circ. Res., 45, 666 (1979).
In particular, adult mongrel dogs were anesthetized with sodium pentobarbital and were artificially respired. Arterial pressure was monitored via a femoral artery, and the pulse pressure was used to trigger a cardiotachometer for heart rate. Left ventricular pressure was determined with a Millar catheter, and dP/dt (the change in ventricular pressure with time) was derived. Cardiac output was determined by measuring ascending aortic blood flow with an electromagnetic flow probe, and myocardial contractile force was measured with a Walton Brodie strain gauge sutured to the right ventricle. Lead II EKG was also recorded.
A standard dose (10 μg/kg/min) of dopamine was administered to assess myocardial responsiveness.
Compounds of the invention were administered by intravenous infusion or bolus […] administration, and the effects on cardiovascular parameters were determined.
Dose related effects of the test compound on blood pressure (BP), heart rate (HR), maximum change in left ventricular pressure with time (dP/dt max),% change in cardiac force (CF) and the increase in mean arterial blood pressure relative to controls (MABP) were compared to pretreatment control values, expressed as a% change and rated for activity.

[4] = read-out: RBF (renal blood flow)
[5] = read-out: RVR (renal vascular resistance)
[6] = read-out: MABP (mean arterial blood pressure)
[7] = read-out: dP/dt (maximum change left ventricular pressure with time)

Structure (SMILES) | change in vivo at 13.9 mg/kg (adult mongrel dogs [1]; [4]) [%] | change in vivo at up to 13.9 mg/kg (adult mongrel dogs [1]; [5]) [%] | IC50 [2] [µM] | phosphodiesterase fraction III inhibition (in words) [2] | change in vivo at 0.375 mg/kg (adult mongrel dogs [3]; read-out: CF (cardiac force)) [%] | change in vivo at 0.375 mg/kg (adult mongrel dogs [3]; read-out: HR (heart rate)) [%] | change in vivo at 0.375 mg/kg (adult mongrel dogs [3]; [6]) [%] | change in vivo at 0.375 mg/kg (adult mongrel dogs [3]; [7]) [%] | change in vivo at 0.875 mg/kg (adult mongrel dogs [3]; read-out: CF (cardiac force)) [%] | change in vivo at 0.875 mg/kg (adult mongrel dogs [3]; read-out: HR (heart rate)) [%] | change in vivo at 0.875 mg/kg (adult mongrel dogs [3]; [6]) [%] | change in vivo at 0.875 mg/kg (adult mongrel dogs [3]; [7]) [%] | further results
CCCc1c(O)nc(C)c2cc(OC)c(OC)cc12 [Y] | 10 | -13 | 5 | inhibit phosphodiesterase fraction III activity; also recorded: phosphodiesterase fraction III inhibiting properties | 84 | 12 | -16 | 44 | – | – | – | – | renal vasodilating activity (in words) (adult mongrel dogs [1]): renal vasodilating properties; cardiotonic activity (in words) (adult mongrel dogs [3]): cardiotonic properties
COc1cc2c(C)nc(O)c(Cl)c2cc1OC [Compound AE, 4-Chloro-3-hydroxy-6,7-dimethoxy-1-methylisoquinoline] | – | – | 62 | – | – | – | – | – | 89 | 29 | 1 | 88 | change in vivo at 0.14 mg/kg (adult mongrel dogs [1]; [4]): 12%; change in vivo at 0.14 mg/kg (adult mongrel dogs [1]; [5]): -25%
CCCCOc1cc2c(C)nc(O)cc2cc1OC [AL] | – | – | 37 | inhibit phosphodiesterase fraction III activity; also recorded: phosphodiesterase fraction III inhibiting properties | 138 | 22 | -10 | 46 | – | – | – | – | change in vivo at 1.2 mg/kg (adult mongrel dogs [1]; read-out: HR (heart rate)): 9%; change in vivo at 1.2 mg/kg (adult mongrel dogs [1]; [6]): -6%; change in vivo at 1.2 mg/kg (adult mongrel dogs [1]; [4]): 13%; change in vivo at 1.2 mg/kg (adult mongrel dogs [1]; [5]): -17%; renal vasodilating activity (in words) (adult mongrel dogs [1]): renal vasodilating properties; cardiotonic activity (in words) (adult mongrel dogs [3]): cardiotonic properties
CCOc1cc2c(C)nc(O)cc2cc1OC [AK] | – | – | – | – | 114 | 13 | -5 | 39 | – | – | – | – | change in vivo at 0.2 mg/kg (adult mongrel dogs [1]; read-out: HR (heart rate)): 10%; change in vivo at 0.2 mg/kg (adult mongrel dogs [1]; [6]): -2%; change in vivo at 0.2 mg/kg (adult mongrel dogs [1]; [4]): 10%; change in vivo at 0.2 mg/kg (adult mongrel dogs [1]; [5]): -11%
COC(=O)CCc1c(O)ncc2cc(OC)c(OC)cc12 [Compound Q, 4-(β-Carbomethoxyethyl)-3-hydroxy-6,7-dimethoxyisoquinoline] | 42 | -23 | – | – | – | – | – | – | 53 | 7 | -4 | 24 | –
COc1ccc2cc(O)ncc2c1OC [D] | 21 | -27 | – | – | – | – | – | – | – | – | – | – | change in vivo at 13.9 mg/kg (adult mongrel dogs [1]; read-out: HR (heart rate)): 3%; change in vivo at 13.9 mg/kg (adult mongrel dogs [1]; [6]): -11%; change in vivo at 8.75 mg/kg (adult mongrel dogs [3]; read-out: CF (cardiac force)): 60%; change in vivo at 8.75 mg/kg (adult mongrel dogs [3]; read-out: HR (heart rate)): 13%; change in vivo at 8.75 mg/kg (adult mongrel dogs [3]; [6]): -7%; change in vivo at 8.75 mg/kg (adult mongrel dogs [3]; [7]): 34%
COC(=O)Cc1c(O)nc(C)c2cc(OC)c(OC)cc12 [W] | 64 | -62 | – | – | – | – | – | – | 42 | 6 | -1 | 28 | –
Cc1nc(O)c(CCC(=O)O)c2cc(O)c(O)cc12 [Compound G, 4-β-Carboxyethyl-3,6,7-trihydroxy-1-methyl-3-isoquinoline Hydrobromide] | 11 | -14 | – | – | – | – | – | – | – | – | – | – | change in vivo at 13.9 mg/kg (adult mongrel dogs [1]; read-out: HR (heart rate)): -3%; change in vivo at 13.9 mg/kg (adult mongrel dogs [1]; [6]): -5%; change in vivo at 3.75 mg/kg (adult mongrel dogs [3]; read-out: CF (cardiac force)): 82%; change in vivo at 3.75 mg/kg (adult mongrel dogs [3]; read-out: HR (heart rate)): 13%; change in vivo at 3.75 mg/kg (adult mongrel dogs [3]; [6]): -10%; change in vivo at 3.75 mg/kg (adult mongrel dogs [3]; [7]): 32%
COc1cc2c(C)nc(O)c(C)c2cc1OC [AB] | – | – | 8.3 | inhibit phosphodiesterase fraction III activity | – | – | – | – | – | – | – | – | change in vivo at 0.1 mg/kg (adult mongrel dogs [3]; read-out: CF (cardiac force)): 80%; change in vivo at 0.1 mg/kg (adult mongrel dogs [3]; read-out: HR (heart rate)): 15%; change in vivo at 0.1 mg/kg (adult mongrel dogs [3]; [6]): -4%; change in vivo at 0.1 mg/kg (adult mongrel dogs [3]; [7]): 48%
CCc1nc(O)c(CCC(=O)OC)c2cc(OC)c(OC)cc12 [K] | 28 | -28 | – | – | – | – | – | – | 47 | 10 | -3 | 33 | –
